Measurements from US8241872B2, “Microorganism producing cyclic compound” (Astellas Pharma Inc., priority 2008, dated 2012).
Non-standard residues stand in square brackets, D forms with d. Residues, ends and D or L forms follow the SMILES beside them. ξ: configuration not given here. ξOrn(N(OH)Ac) = CC(=O)N(O)CCCC(N)C(=O)O

Key:
Test in all cases: Antifungal activity, broth microdilution method
Type in all cases: cell-based
[1] = test system: Rhizopus oryzae FP1988
Method: (§1) Antifungal activities for test fungi shown in Table 15 was determined by a broth microdilution method (Hikaru Kume and Toshikazu Yamazaki, Clinical Microbiology, Vol. 21, No. 5, pp. 573-580, 1994).

[2] = test system: Cryptococcus neoformans FP1739
Method: as §1

[3] = test system: Aspergillus niger ATCC6275
Method: as §1

[4] = test system: Trichophyton mentagrophytes FP2103
Method: as §1

[5] = test system: Trichophyton rubrum FP596
Method: as §1

[6] = test system: Candida glabrata FP1944
Method: as §1

[7] = test system: Aspergillus terreus SR0174
Method: as §1

[8] = test system: Candida parapsilosis FP1980
Method: as §1

[9] = test system: Aspergillus fumigatus FP1305
Method: as §1

[10] = test system: Alternaria alternata AHU9258
Method: as §1

[11] = test system: Candida guilliermondii FP2086
Method: as §1

[12] = test system: Fusarium solani FP1930
Method: as §1

[13] = test system: Candida krusei FP1979
Method: as §1

[14] = test system: Aspergillus flavus ATCC9643
Method: as §1

[15] = test system: Pseudallescheria boydii FP1987
Method: as §1

[16] = test system: Trichosporon asahi FP2044
Method: as §1

CC(=O)N(O)CCCC1NC(=O)C(CCCN(O)C(C)=O)NC(=O)C(Cc2ccccc2)NC(=O)C(CC(C)C)NC(=O)C(CC(N)=O)NC(=O)C(CCCN(O)C(C)=O)NC1=O (stereo not shown) [compound B] (cyclo([ξOrn(N(OH)Ac)][ξOrn(N(OH)Ac)][ξOrn(N(OH)Ac)]NLF); configuration not given here)
MEC (minimum effective concentration) [1]: 25 µg/mL
MEC (minimum effective concentration) [2]: 0.2 µg/mL
MEC (minimum effective concentration) [3]: 0.78 µg/mL
MEC (minimum effective concentration) [4]: 0.78 µg/mL
MEC (minimum effective concentration) [5]: 1.25 µg/mL
MEC (minimum effective concentration) [6]: 0.31 µg/mL
MEC (minimum effective concentration) [7]: 0.31 µg/mL
MEC (minimum effective concentration) [8]: 0.39 µg/mL
MEC (minimum effective concentration) [9]: 0.31 µg/mL
MEC (minimum effective concentration) [10]: 0.1 µg/mL
MEC (minimum effective concentration) [11]: 0.31 µg/mL
MEC (minimum effective concentration) [12]: 0.2 µg/mL
MEC (minimum effective concentration) [13]: 0.31 µg/mL
MEC (minimum effective concentration) [14]: 0.2 µg/mL
MEC (minimum effective concentration) [15]: 0.2 µg/mL
MEC (minimum effective concentration) [16]: 0.2 µg/mL
